Experimental data published in patent publication US10624866B2, “Composition for prevention or treatment of chronic pain comprising Evans blue” (THE INDUSTRY & ACADEMIC COOPERATION IN CHUNGNAM NATIONAL …, priority 2018, dated 2020).

Columns and labels:
[1] = tested on: neurons of the dorsal horn in the spinal cord; test: NeuN immunostaining of spinal cord tissue injected with Evans blue; type: in vivo, white rat; settings: dorsal horn of the spinal cord (FIGS. 5A to 5C)
Protocol: (§1) Specifically, it was immune-stained with VNUT antibody (green) to examine the expression of VNUT in the dorsal root ganglia and dorsal horn of the spinal cord. Evans blue was injected on the 7th day after the pain model surgery. On 2nd day after the injection of Evans blue, the white rat was anesthetized by intraperitoneal injection of sodium pentobarbital (100 mg/Kg). Then the phosphate buffer solution (PBS, pH 7.4) was intracardiac-perfused to entirely remove the blood, followed by perfusion with 4% paraformaldehyde to fix the result. Then, the spinal cord sites (L4 to L6) were carefully taken out, post-fixed in the same fixative overnight, and immersed in a 30% sucrose solution. Then, the tissues obtained by frozen sectioning of the spinal cord at […] were subjected to the normal serum blocking and then incubated overnight at 4° C. with VNUT (1:500; ABN 83; milipore) antibody. The next day, the result was washed with PBS and incubated with the cy2-conjugated secondary antibody (1:400) for 2 hours, and then the nuclear thereof was stained with DAPI. The tissues were attached to a slide glass and photographed using a confocal microscope (Leica, TCS SP8).
To determine whether Evans Blue targeted the neurons of the dorsal horn in the spinal cord, the spinal cord tissue injected with Evans blue was stained with NeuN, a marker for identifying neurons. […]

[2] = tested on: microglia cells present in the dorsal horn of the spinal cord; test: Iba-1 immunostaining of spinal cord tissue injected with Evans blue; type: in vivo, white rat; settings: laminas I to III (FIGS. 6A to 6C)
[3] = tested on: excitatory neurons located in the dorsal horn of the spinal cord; test: vGluT2 immunostaining of spinal cord tissue injected with Evans blue; type: in vivo, white rat; settings: dorsal horn laminas I and II (FIGS. 5D to 5F)
[4] = tested on: animal model of SNL neuropathic pain; test: von Frey filament test (mechanical allodynia) in spinal nerve ligation (SNL) model of neuropathic pain; type: in vivo, Sprague-Dawley rats
Protocol: 5-week-old male SD white rats (Sprague-Dawley rats, 150 to 180 g) were purchased and were kept in an environment where each of night and day was continuously kept for 12 hours, and the temperature was maintained at 22±2° C. Further, water and feed were freely available for rats, and the rats were fed three or less per cage. At 6 weeks of age after adapted in an experimental environment for 7 days before the experiment, the rats responsive to stimulation of 8 g or more of von Frey filament were only selected, and then the spinal nerve ligation (SNL) procedure was performed thereon, inducing neuropathic pain (NPP). More specifically, after general anesthesia with respiratory anesthesia with isoflurane, the left lumbar (L6) […] was carefully removed for differentiation of the L4 and L5 spinal nerves (FIGS. 1A to 1B), and then the L5 spinal nerve was ligated with a silk suture thread (3-0), and the wound was sutured to prepare an experimental animal model of SNL neuropathic pain (FIGS. 1C to 1D). The analgesic effect of Evans blue of the present disclosure was confirmed by measuring mechanical hyperalgesia using the animal model of neuropathic pain. The von Frey filament test (test for mechanical allodynia) is a method for measuring the degree of mechanical allodynia after animal pain modeling. The rats were placed in an acrylic box disposed on a wire mesh test bench with a mesh size of 2×2 mm and adapted for at least 15 minutes. After the rats became quiet in movement, the pain threshold values (g) of the rat were evaluated using the von Frey filaments (Stoelting, USA) having a thickness of 0.4, 0.6, 1, 2, 4, 6, 8, and 15 g. […] The central part thereof was stimulated with von Frey filaments. When there was a positive reaction, stimulation was performed with weak filaments. When there was no positive reaction, stimulation was performed with strong filaments. As a result, the reduction of the pain threshold for the von Frey filament test on the seventh day after the pain model surgery was the maximum. From the seventh day when the reduction of the pain threshold for the von Frey filament test after the pain model surgery was the maximum, Evans blue (EB) was injected intrathecal injection with a Hamilton syringe, and the hind paw of the […] was stimulated with the von Frey filament to the measure minimum pain threshold. Changes in pain threshold were measured after 2 hours, 1 day, 2 days, 3 days, 5 days, and 7 days. At this time, 10 μl physiological saline was administered to the control group, and Evans blue was administered at various concentrations (5, 15, and 50 μg/10 μl).

astrocytes = test: GFAP immunostaining of spinal cord tissue injected with Evans blue; type: in vivo, white rat; settings: FIGS. 6D to 6F
[5] = molecular target: T1, vesicular nucleotide transporter (VNUT) of the dorsal root ganglia (Rattus norvegicus, UniProt P0DX21); test: Immunostaining with VNUT antibody after in vivo Evans blue injection, confocal microscopy; parameters: species or system white rat; settings: dorsal root ganglia: axon, axon terminal and cell body; 2nd day after injection (FIGS. 4A to 4C)
T1 construct: examine the expression of VNUT in the dorsal root ganglia and dorsal horn of the spinal cord; from tissue; host or cells: rat dorsal root ganglia and spinal cord (L4 to L6) sections after in vivo Evans blue injection
T1 sequence (P0DX21 1-447): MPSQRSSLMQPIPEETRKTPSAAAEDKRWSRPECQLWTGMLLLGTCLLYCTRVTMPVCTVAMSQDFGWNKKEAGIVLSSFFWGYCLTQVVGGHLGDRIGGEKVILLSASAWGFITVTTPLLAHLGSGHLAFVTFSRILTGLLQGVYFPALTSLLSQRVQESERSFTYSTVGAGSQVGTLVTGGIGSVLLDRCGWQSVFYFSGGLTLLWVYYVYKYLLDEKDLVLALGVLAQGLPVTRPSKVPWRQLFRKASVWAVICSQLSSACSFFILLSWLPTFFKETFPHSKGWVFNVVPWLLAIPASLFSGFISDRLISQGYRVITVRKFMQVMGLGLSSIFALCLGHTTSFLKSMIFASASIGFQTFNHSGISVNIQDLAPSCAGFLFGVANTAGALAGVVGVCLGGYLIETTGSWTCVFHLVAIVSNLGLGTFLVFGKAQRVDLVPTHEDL
Protocol: To verify targeting VNUT of the dorsal root ganglia and dorsal horn of the spinal cord by Evans blue in vivo, VNUT was immune-stained, and Evans blue was administered in vivo to confirm whether it was targeted.
as §1

[6] = tested on: inhibitory neurons distributed in laminas I and II; test: Calretinin immunostaining of spinal cord tissue injected with Evans blue; type: in vivo, white rat; settings: laminas I and II (FIG. 4G, FIGS. 5G to 5I)

Cc1cc(-c2ccc(/N=N/c3ccc4c(S(=O)(=O)O)cc(S(=O)(=O)O)c(N)c4c3O)c(C)c2)ccc1/N=N/c1ccc2c(S(=O)(=O)O)cc(S(=O)(=O)O)c(N)c2c1O [Evans blue]
overlap of NeuN (neuron marker) signals with Evans blue [1]: most signals of NeuN, which is a neuron marker, overlapped | overlap of Iba-1 (microglial cell marker) signal with Evans blue signal [2]: partially overlapped | targeting of excitatory neurons (vGluT2 stained around cell bodies of neurons targeted by Evans blue) [3]: targeted excitatory neurons | intensity of pain (pain threshold) than before Evans blue treatment (0D) ([4]; 5 μg intrathecal, on the 2nd and 3rd day (p<0.05)): significant increase | intensity of pain (pain threshold) than before Evans blue treatment (0D) ([4]; 15 μg intrathecal, after 2 hours and the 1st day (p<0.05)): significant increase | intensity of pain (pain threshold) than before Evans blue treatment (0D) ([4]; 50 μg intrathecal, after 2 hours and the 1st day (p<0.01), the 2nd day (p<0.001), the 3rd day, the 5th day (p<0.05)): significant increase | intensity of pain (pain threshold) compared to the control group treated with physiological saline ([4]; 50 μg intrathecal, on the 2nd day (p<0.001)): significant increase | analgesic effect on pain (pain threshold, von Frey filament test) ([4]; SNL rats, intrathecal injection on day 7 after surgery, 5, 15 and 50 μg/10 μl, versus control group treated only with physiological saline): overall increased meaningfully | time of peak analgesic effect ([4]; after intrathecal injection, gradually decreased thereafter): 3 days | overlap of GFAP (astrocyte marker) signal with Evans blue (astrocytes): did not overlap | overlap of Evans blue signal with VNUT expression [5]: overlaps | overlap of calretinin (inhibitory neurons) with Evans blue [6]: did not overlap
